{
  "source": "paper PMC8959600",
  "about": "(eLife, 2022)",
  "key": {"S. flexneri EG478": {"test_system": "S. flexneri EG478", "assay": "Solid medium test at 10 µM and dose-response MIC against MDR clinical isolate", "format": "cell-based, Shigella flexneri", "description": "The confirmed hit list was narrowed by applying the following filters: a 30% cut-off value, absence of undesirable structural features (e.g. electrophiles, peroxides, and Michael acceptors) and reduced physicochemical risk (maximum five aromatic rings and PFI <8)([Leeson and Young, 2015]). […] Briefly, the selected bacteria were cultured on the Luria-Bertani agar overnight at 37 °C (Campylobacter isolates were grown in 2.5% Laked Horse Blood cation-adjusted Mueller Hinton medium (CAMHB, Sigma Aldrich) and incubated in microaerophilic conditions (10% CO2, 5% O2 and 85% N2) at 42 °C); colonies were added to sterile PBS to form 0.5 McFarland solutions. All chemical testing was performed at an initial concentration of 10 μM. Bacterial suspensions were evenly spread on Mueller-Hinton agar by sterile cotton swabs (Medical Wire – MWE). […] Plates were incubated overnight at 37 °C. The activity of the chemical was recorded as being active (yes) or non-active (no) for each of the tested chemicals.\nMICs were evaluated using the micro dilution assay in Müller Hinton broth using 1 mM chemical stock solutions, and a final concentration of 5 × 10^5 CFU/mL bacteria. Twofold serial dilutions were prepared in 96-well plates at concentration ranging from 1 μM to 7.8 nM. 100 μL bacteria were added and incubated at 37 °C overnight; 10 μl of each solution was dropped onto Luria-Bertani agar and incubated overnight at 37 °C for the detection of bacterial growth. Results were interpreted as minimal concentration necessary to inhibit growth."}, "S. flexneri 2457T [1]": {"test_system": "S. flexneri 2457T", "assay": "microbe, parasite or virus in culture", "format": "cell-based, Shigella flexneri", "description": "Bacterial inoculum without drug was used as positive control. The bacteria inoculum (1 × 10^5 CFU/mL) for the assay was prepared by diluting a log phase incubated at 37 °C for 3–4 hr. Mueller Hinton agar plates were prepared containing 4xMIC and 10xMIC and inoculated with different concentrations of bacteria (1 × 10^9, 1 × 10^8, and 1 × 10^7 CFU/mL). Plates were prepared in duplicate and incubated overnight at 37 °C. The frequency of spontaneous resistant mutants was calculated by using the formula: FoR = resistant CFUs/inoculum CFUs. The mean of the two plates was reported."}, "S. flexneri 2457T [2]": {"test_system": "S. flexneri 2457T", "format": "in vivo", "details": "mice, 39 mg/kg Tebipenem freebase subcutaneously, 24 hr after intraperitoneal infection"}, "[3]": {"details": "paediatric population, Tebipenem-Pivoxil PO; ref Sato et al., 2008; cited from earlier work"}, "Campylobacter jejuni": {"test_system": "Campylobacter jejuni", "assay": "MIC by micro dilution, clinical Campylobacter isolates from Vietnam", "format": "cell-based", "details": "75 Campylobacter jejuni from diarrhoeal cases in Vietnam; read-out: median MIC", "excerpt": "(§1) Selected compounds, including Tebipenem, were profiled against a panel of […] clinical isolates of enteric pathogens comprised of Shigella (Vietnam and Kenya; n = 135), non-typhoidal Salmonella (Vietnam; n = 117), Campylobacter (Vietnam; n = 75), and various pathogenic E. coli species (Vietnam; n = 7) ([Butcher et al., 2014]). The antimicrobial susceptibility profile of these organisms is described in Supplementary file 1.\n(§2) Compound screening and dose response assays have been described previously ([Van Voorhis et al., 2016]; [Wiegand et al., 2008]). Briefly, the selected bacteria were cultured on the Luria-Bertani agar overnight at 37 °C (Campylobacter isolates were grown in 2.5% Laked Horse Blood cation-adjusted Mueller Hinton medium (CAMHB, Sigma Aldrich) and incubated in microaerophilic conditions (10% CO2, 5% O2 and 85% N2) at 42 °C); colonies were added to sterile PBS to form 0.5 McFarland solutions. […] The activity of the chemical was recorded as being active (yes) or non-active (no) for each of the tested chemicals. A non-active result was recorded when there was no evidence of bacterial inhibition, and the culture area was indistinguishable from the negative control.\n(§3) MICs were evaluated using the micro dilution assay in Müller Hinton broth using 1 mM chemical stock solutions, and a final concentration of 5 × 10^5 CFU/mL bacteria. […]"}, "E. coli": {"test_system": "E. coli", "assay": "MIC by micro dilution, clinical E. coli isolates from Vietnam", "format": "cell-based", "details": "Escherichia coli; seven E. coli from diarrhoeal cases in Vietnam; read-out: median MIC", "excerpt": "as §1, §2, §3"}, "[4]": {"test_system": "clinical isolates of Shigella", "assay": "MIC by micro dilution, clinical Shigella isolates from Vietnam and Kenya", "format": "cell-based, Shigella spp.", "details": "all clinical isolates of Shigella (82 Vietnam, 53 Kenya)", "excerpt": "as §1, §2, §3"}, "Shigella (Sf2457T)": {"test_system": "Shigella (Sf2457T)", "assay": "Checkerboard synergy assay (FIC), laboratory isolate", "format": "cell-based, Shigella flexneri", "description": "(§4) Before initiating drug combination assays, the MIC values for both compounds were determined against Shigella (Sf2457T), Salmonella (St14028), and E. coli (EcDH5a) isolates. […] 20 μM moxifloxacin was used as negative control (100% bacterial growth inhibition) in one column and DMSO as positive control (100% bacterial growth). A total of 25 µl of 1 × 10^6 CFU/mL bacterial culture was added to each well of a 384-well plate (μClear; Greiner Bio‐One). Plates were incubated overnight at 37 °C. Next, 10 µl of resazurin were added and plates were incubated at room temperature for 3 hr. Bacterial growth inhibition was measured by fluorescence in a Envision plate reader (PerkinElmer). All assays were performed in duplicate. Combination studies with clinical isolates were performed in 96-well plates (Greiner) adding 200 μl of 1 × 10^6 CFU/mL bacterial culture and following the same checkboard titration method as described above. The range of final working concentrations of each antimicrobial was adjusted based on the MIC of each selected organism.\nMICs were determined for drug A and drug B alone and in combination. […] The sum of FIC was expressed using the following equation: FIC = (MIC of drug A in combination / MIC of drug A alone) + (MIC of drug B in combination / MIC of drug B alone) ([Le Minh et al., 2015]; [Petersen et al., 2006]; [Hall et al., 1983]; [European Committee for Antimicrobial Susceptibility Testing (EUCAST) of the European Society of Clinical Microbiology and Infectious Dieases (ESCMID), 2000])."}, "Salmonella": {"test_system": "Salmonella", "assay": "MIC by micro dilution, clinical Salmonella isolates from Vietnam", "format": "cell-based", "details": "117 Salmonella from diarrhoeal cases in Vietnam; read-out: median MIC", "excerpt": "as §1, §2, §3"}, "[5]": {"test_system": "enteric pathogens (Salmonella spp., Shigella spp., K. pneumoniae, and E. coli)", "assay": "Checkerboard synergy assay (FIC), Gram-negative MDR clinical isolates", "format": "cell-based", "details": "Tebipenem/LpxC inhibitor combination, all tested enteric pathogens", "description": "as §4\nMICs were determined for drug A and drug B alone and in combination. […]"}, "[6]": {"details": "in combination with LpxC inhibitor PF-5081090"}},
  "data": [
    {"smiles": "C[C@@H](O)[C@H]1C(=O)N2C(C(=O)O)=C(SC3CN(C4=NCCS4)C3)[C@H](C)[C@H]12", "note": "[Tebipenem]", "values": [
      {"measurement": "bactericidal activity", "setting": "S. flexneri EG478; MDR clinical isolate S. flexneri EG478", "value": "greatest bactericidal activity"},
      {"measurement": "MIC range", "setting": "S. flexneri EG478; range over S. flexneri EG478 and S. sonnei 02-1181", "value": "0.08 to 0.15", "unit": "µg/mL"},
      {"measurement": "frequency of spontaneous resistance", "setting": "S. flexneri 2457T [1]; S. flexneri 2457T, 4 x and 10 x MIC", "value": "< 1.2 × 10^–9"},
      {"measurement": "MIC", "setting": "S. flexneri 2457T [1]; Shigella flexneri, 2457T", "value": 0.02, "unit": "µM"},
      {"measurement": "reduction of organisms in the small intestine", "setting": "S. flexneri 2457T [2]", "value": 1.2, "unit": "log"},
      {"measurement": "AUC0-tlast", "setting": "[3]", "value": 16000, "unit": "ng·h/mL"},
      {"measurement": "Cmax", "setting": "[3]", "value": 7500, "unit": "ng/mL"},
      {"measurement": "MIC", "setting": "Campylobacter jejuni", "value": "< 0.1", "unit": "µM"},
      {"measurement": "MIC", "setting": "E. coli", "value": "< 0.1", "unit": "µM"},
      {"measurement": "MIC values, range", "setting": "[4]", "value": "0.04 to 0.3", "unit": "µM"},
      {"measurement": "interaction (FIC index)", "setting": "Shigella (Sf2457T); [6]", "value": "partial synergy"},
      {"measurement": "reduction of the MIC against Tebipenem", "setting": "Shigella (Sf2457T); [6]", "value": "> 10", "unit": "fold"},
      {"measurement": "interaction (FIC index)", "setting": "Shigella (Sf2457T); in combination with azithromycin", "value": "partial synergy"},
      {"measurement": "interaction (FIC index)", "setting": "Shigella (Sf2457T); in combination with ceftriaxone", "value": "indifference or partial synergy"},
      {"measurement": "interaction (FIC index)", "setting": "Shigella (Sf2457T); in combination with ciprofloxacin", "value": "indifference or partial synergy"},
      {"measurement": "interaction (FIC index)", "setting": "Shigella (Sf2457T); in combination with mecillinam", "value": "indifference or partial synergy"},
      {"measurement": "MIC", "setting": "Salmonella", "value": "< 0.1", "unit": "µM"},
      {"measurement": "interaction (FIC index)", "setting": "[5]", "value": "indifference or partial synergy"}
    ]}
  ]
}
